In paper PMC11989212, “Experimental Conditions to Retrieve Intrinsic Cooperativity α Directly from Single Binding Assay Data Exemplified by the Ternary Complex Formation of FKBP12, MAPRE1 and Macrocyclic Molecular Glues” (International Journal of Molecular Sciences, 2025) one finds EC50 and precipitation data, which are given here for one compound.

Each structure is given as a SMILES string. Like-named read-outs stand apart in the source and are kept apart here.

The target in data set [1] is FKBP12 in the presence of MAPRE1 (Homo sapiens, UniProt P62942+Q15691). Nature of the data set: Spectral shift target engagement assay, binding to FKBP12 in the presence of 10 μM MAPRE1 (ternary). From the text:
Our method of choice is the spectral shift method, which monitors binding events on the target isothermally and in equilibrium via an environment-sensitive near-infrared fluorophore. In the case of target engagement, either the proximity of the ligand towards the dye or structural changes occurring in the target as a result of binding lead to a change in the chemical environment of the fluorophore. Those changes affect the physiochemical properties of the reporter fluorophore and translate into either blue or red shifts (or peak broadening) of emission peaks upon ligand binding, which can be sensitively monitored by simultaneously recording the fluorescence at two wavelengths (i.e., at 650 nm and 670 nm). Calculating the ratio between the two fluorescence channels then allows to monitor subtle emission shifts that occur as a result of target engagement. Affinity measurements can then be performed by recording the spectral shift as a function of ligand concentration.
Binding studies through FKBP12: To monitor the binding of R,--SLF-11 by the stronger binding FKBP12 in the absence and in the presence of 10 μM MAPRE1 via %Cbound, binary and %Cbound, ternary, respectively, the concentration of reversibly NTA-labeled FKBP12 was limited to [Ctot] = 40 nM. […] In contrast to the experimental setup in the previous two binding experiments with monitoring through the weaker binding protein MAPRE1, where the applied protein concentrations were optimally chosen, this is not the case for the binding experiment through the stronger binder FKBP12. First of all, the applied excess of T with [Ttot] = 10 μM is roughly 20000-fold off of the proposed 100 times KT,1 threshold, which would correspond to 180 mM. Only under such excess conditions of T can the equilibrium of forming TL under the constraint that all ligand L is bound to T be reached to ensure that [Ltot] approaches the “ligand” concentration [TL]. […] If KC,2 is sufficiently high, the 20 nM deviation to correct for the protein concentration could be neglected. However, the resulting calculated value for KC,2 is 0.023 nM, accounting for the cooperativity α = 10,405 and KC,1 = 234 nM as derived by the MAPRE1 experiment. This value is far below the applied protein concentration of [Ctot] = 40 nM and makes it infeasible to estimate KC,2 from the EC50 of the %Cbound, ternary curve. Consequently, the EC50 shifts, meaning the apparent cooperativity, from monitoring the binding by the stronger binding protein C are diverging from the underlying intrinsic cooperativity α. […] The deviation of calculated (254 nM/24.2 nM = 10.5) and measured apparent cooperativity (254 nM/66 nM = 3.8) can be explained by a negative cooperativity induced by the His6-NTA tag of FKBP12. Studies to lower [Ctot] and identify a better position for the spectral shift tag on FKBP12 are ongoing (Figure 6a).
His-tagged FKBP12 was labeled using the His-Tag Labeling Kit RED-tris-NTA 2nd Generation (MO-L018; NanoTemper Technologies GmbH). The affinity between NTA dye and the His-tag of FKBP12 was determined as 7 nM. MAPRE1 was labeled using the Protein Labeling Kit RED-NHS 2nd Generation (MO-L011; NanoTemper Technologies GmbH). In brief, 10 µM of MAPRE1 was incubated with a 3-fold molar excess of fluorophore for 30 min. The unreacted fluorophore was removed by performing a size exclusion purification (B-column). Collecting the protein fraction yielded 1.8 µM labeled MAPRE1, with a degree of labeling of 0.8, as determined on a Nanodrop.
A 1:2 dilution series of all compounds (starting from the 10 mM stock concentration) was prepared in pure DMSO. Each concentration was diluted 25-fold with assay buffer (20 mM HEPES, pH 7.4, 150 mM NaCl, 1 mM DTT (all from Carl Roth, Karlsruhe, Germany), and 0.01% Pluronic F-127 (Sigma Aldrich, Taufkirchen, Germany)). Next, 10 µL from each of the prepared ligand dilutions was transferred into an empty well on a Dianthus Microwell Plate (DI-P001A). […]

Data set [2] is described as follows: Precipitation seen in the spectral shift titration. The format is physicochemical. The note with it: assay buffer, high concentrations. The protocol:
Therefore, measurements from the highest concentration samples had to be removed, which impaired the determination of the interpolation curve. Moreover, the signal is much smaller compared to the other studied ligands. […] This is a deviation from the theoretically found true value of 1985 nM − 2.5 nM = 1982.5 nM. The KT,2 is 2% below the EC50 value of the %Tbound, ternary curve. The apparent cooperativity of 460,000 nM/1985 nM = 232 is still below the cooperativity α of 460,000 nM/1941 = 237 (Figure 10b).
A 1:2 dilution series of all compounds (starting from the 10 mM stock concentration) was prepared in pure DMSO. Each concentration was diluted 25-fold with assay buffer (20 mM HEPES, pH 7.4, 150 mM NaCl, 1 mM DTT (all from Carl Roth, Karlsruhe, Germany), and 0.01% Pluronic F-127 (Sigma Aldrich, Taufkirchen, Germany)). Next, 10 µL from each of the prepared ligand dilutions was transferred into an empty well on a Dianthus Microwell Plate (DI-P001A). […] For all interactions measured via FKBP12, the target was prepared at a final concentration of 40 nM, supplemented with 5 nM NTA fluorophore. […] The resulting spectral shift signal (Ratio 670 nm/650 nm) was plotted against compound concentration and analyzed in the DI.Screening Analysis software, version 2.1.1.

Sequence of FKBP12 in the presence of MAPRE1 (P62942 whole entry): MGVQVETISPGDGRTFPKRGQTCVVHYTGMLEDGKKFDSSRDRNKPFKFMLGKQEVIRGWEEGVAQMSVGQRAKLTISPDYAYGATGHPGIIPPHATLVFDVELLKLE
Sequence of FKBP12 in the presence of MAPRE1 (Q15691 whole entry): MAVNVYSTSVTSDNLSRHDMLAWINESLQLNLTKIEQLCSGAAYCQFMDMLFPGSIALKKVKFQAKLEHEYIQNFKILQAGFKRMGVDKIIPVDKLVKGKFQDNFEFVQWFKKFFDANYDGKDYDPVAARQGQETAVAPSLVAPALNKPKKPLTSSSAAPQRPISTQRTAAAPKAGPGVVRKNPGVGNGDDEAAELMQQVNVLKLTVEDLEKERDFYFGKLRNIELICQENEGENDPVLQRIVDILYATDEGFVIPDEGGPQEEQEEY

For `C=C1CCN2C(=O)COc3cccc(c3)C(CCc3ccc(OC)c(OC)c3)OC(=O)C3CCCCN3C(=O)C(=O)C(C)(C)COC(=O)C(CN)NC(=O)C2C1` (stereo not drawn) [R,S-SLF-7], the EC50 in data set [1] (40 nM FKBP12-NTA, 10 μM MAPRE1, read-out: EC50 of the %Cbound, ternary curve (measured)) is 110 nM; in data set [1] (calculated with the model using α from MAPRE1 binding, read-out: calc EC50 of the %Cbound, ternary curve), 48 nM. In addition, the precipitation result in data set [2] was “precipitation at high concentrations”.
